The test system of experiment [1] is colon carcinoma cell line SW480. The experiment can be described thus: Antiproliferative activity, growth of SW480 cells (MTT). In kind it is cell-based. Conditions: Homo sapiens, 168 h, day 7 post drug addition, 0.1% DMSO, * = average of two separate experiments. On the procedure: (§1) The epithelial breast carcinoma cell line, MDAMB-435, and the colon carcinoma cell line, SW480, were purchased from ATCC (American Type Cell Culture Collection) and were grown in culture in medium as recommended by ATCC. For analysis of the effect of various compounds on growth of these cells, the cells were plated at a concentration of 1500 cells/well in a 96 well tissue culture plate ("test plate"). The day after the cells were plated, the compounds to be analyzed were dissolved in 100% DMSO (dimethyl sulfoxide) to yield at 10 mM stock solution. Each compound was diluted in H2 O to 1 mM and was added to triplicate wells in the first row of a 96 well master plate which contains medium to yield a final concentration of 40 μM. The compounds were then serially diluted in medium in the "master plate". The diluted compound(s) were then transferred to test plates containing cells. A row of vehicle "control cells" received DMSO. The final concentration of DMSO in each well was 0.1%. At day 5 post-drug addition, the plates containing MDA-MB435 cells were analyzed as follows. Plates containing SW480 cells were analyzed at day 7 post drug addition as follows.
(§2) MTT (3-(4-5methylthiazole-2-yl)-2,5-diphenyl tetrazolium bromide; thiazolyl blue) was added to each well to yield a final concentration of 1 mg/ml. The plate was then incubated at 37° C. for 21/2-3 hours. The MTT containing medium was then removed and 50 μl of 100% ethanol was added to each well to dissolve the formazan. The absorbences were then read using an automated plate reader (Bio-tek microplate reader). IC50 's were calculated using the Reed and Munsch equation, see Am. J. Hygiene Vol. 27 pgs. 493-497, 1938.

The subject of experiment [2] is epithelial breast carcinoma cell line MDAMB-435. The experiment can be described thus: Antiproliferative activity, growth of MDAMB-435 cells (MTT). The class given is cell-based. Conditions: Homo sapiens, MDA-MB-435, 120 h, MDAMB435, day 5 post-drug addition, 0.1% DMSO, * = average of two separate experiments. How it is done:
as §1, §2

Consider `Cn1cc(C2=C(c3cn(C)c4cc(C#N)ccc34)C(=O)NC2=O)c2ccccc21` [Ex 1, 1-methyl-3-[4-(1-methyl-1H-indol-3-yl)-2,5-dioxo-2,5-dihydro-1H-pyrrol-3-yl]-1H-indole-6-carbonitrile], for which the IC50 stood at 8 nM in experiment [1] and 30 nM in experiment [2].
For `CC(=O)OCc1ccc2c(C3=C(c4cn(C)c5ccccc45)C(=O)NC3=O)cn(C)c2c1` [Ex 3, Acetic acid 1-methyl-3-[4-(1-methyl-1H-indol-3-yl)-2,5-dioxo-2,5-dihydro-1H-pyrrol-3-yl]-1H-indol-6-yl methyl ester], the IC50 in experiment [1] turned out to be 830 nM; in experiment [2], 300 nM.
As to `COC(=O)c1ccc2c(C3=C(c4cn(C)c5ccccc45)C(=O)NC3=O)cn(C)c2c1` [Ex 4a, 1-methyl-3-[4-(1-methyl-1H-indol-3-yl)-2,5-dioxo-2,5-dihydro-1H-pyrrol-3-yl]-1H-indole-6-carboxylic acid methyl ester], the 50% inhibitory concentration (IC50) in experiment [1] and in experiment [2] was 10 nM each time.
As for `Cn1cc(C2=C(c3cn(C)c4cc(C=O)ccc34)C(=O)NC2=O)c2ccccc21` [Ex 4b, 1-methyl-3-[4-(1-methyl-1H-indol-3-yl)-2,5-dioxo-2,5-dihydro-1H-pyrrol-3-yl]-1H-indole-6-carboxaldehyde], the IC50 was 54 nM in experiment [1] and 32 nM in experiment [2].
Consider `COCc1ccc2c(C3=C(c4cn(C)c5ccccc45)C(=O)NC3=O)cn(C)c2c1` [Ex 4c, 3-(6-Methoxymethyl-1-methyl-1H-indol-3-yl)-4-(1-methyl-1H-indol-3-yl)-pyrrole-2,5-dione], for which the half-inhibitory concentration (IC50) in experiment [1] turned out to be 110 nM; in experiment [2], 70 nM.
`Cn1cc(C2=C(c3cn(C)c4cc(CO)ccc34)C(=O)NC2=O)c2ccccc21` [Ex 5, 3-(6-hydroxymethyl-1-methyl-1H-indol-3-yl)-4-(1-methyl-1H-indol-3-yl)pyrrole-2,5-dione]: the IC50 in experiment [1] stood at 350 nM; in experiment [2], 420 nM.
In the case of `Cn1cc(C2=C(c3cn(C)c4cc(C(N)=O)ccc34)C(=O)NC2=O)c2ccccc21` [Ex 6, 1-Methyl-3-[4-(1-methyl-1H-indol-3-yl)-2,5-dioxo-2,5-dihydro-1H-pyrrol-3-yl]-1H-indole-6-carboxylic acid amide], the IC50 in experiment [2] was 700 nM.

Values taken from patent US5856517A, “Substituted pyrroles” (Hoffmann-La Roche Inc., priority 1997, dated 1999).
